According to publication PMC9021288 (Nature Communications, 2022):
Where “and” joins values, the source holds several entries; their conditions need not be identical. Equal values may be shown once. Read-outs that look alike come from different tables or passages of the source.

Tests used:
P. falciparum 3D7 = test: Parasite reduction rate (PRR) in vitro killing rate assay; type: cell-based, Plasmodium falciparum
Method: The antimalarial killing rate was determined by GlaxoSmithKline (GSK, Tres Cantos, Madrid, Spain) as described previously. […] The number of viable parasites was determined on day 21 and 28 by counting the wells with parasite growth.

AcAS (PF3D7_0627800) = test: Cellular thermal shift assay on parasite lysate; type: binding, Plasmodium falciparum; conditions: 1 µM
Method: A cellular thermal shift assay (CETSA) was performed on infected RBCs or parasite lysates as described previously.
For a CETSA on parasite lysates, synchronized trophozoite cultures (ACS11-tagged parasites) were treated with 0.1% saponin to lyse the RBCs, and washed three times in PBS. Subsequently, parasite pellets were resuspended in 1× lysis buffer and subjected to three flash-freeze-thaw cycles using liquid nitrogen, followed by mechanical shearing using a syringe with a 25 G and a 30 G needle. Samples were spun down at 18,000 g for 20 min at 4 °C. The supernatant was diluted to 2.1 mg/ml protein concentration, and 100 µl was added to each PCR tube containing 1 µl of the compound at a 100× concentration (final concentration of 1 µM). Samples were incubated for 30 min at room temperature, subjected to a thermal gradient for 3 min on a pre-heated PCR machine, followed by 4 °C for 3 min. Samples were spun down at 18,000 g for 20 min at 4 °C and the soluble fraction was flash-frozen in liquid nitrogen and stored at −80 °C.
Samples were loaded on an 8% SDS-Page gel (Genscript) with 4×10^6 infected RBCs or 50 µg protein for the parasite lysate approach. Proteins were transferred to a nitrocellulose membrane that was blocked with 5% skim milk (Sigma) in PBS overnight and incubated with rabbit antiserum against AcAS (1:1000) for 1 h. Subsequently, membranes were washed three times with PBS-Tween for 5 min, followed by incubation with secondary horseradish peroxide (HRP)-conjugated goat anti-rabbit antibodies (Dako P0448, 1:1000) for 1 h. Blots were then washed three times with PBS-Tween for 5 min and twice with PBS. Following a 5-min incubation with Clarity Max Western ECL Substrate (BioRad), protein blots were imaged using the ImageQuant LAS4000 (GE Healthcare). The band intensity was quantified using Fiji software.

[1] = test system: P. falciparum NF54 rings and schizonts; test: Stage-specific activity on synchronized ring and schizont cultures; type: cell-based, Plasmodium falciparum
Method: Asynchronous NF54 parasites were cultured in a semi-automated shaker system[63] and synchronized once with 5% D-sorbitol. […] This yielded a parasite culture with ≥ 90% rings. To assess the schizont-stage activity of MMV693186, the initial synchronized culture was treated again with sorbitol 7 h later. Subsequently, parasites were cultured for another 17 h to yield a parasite culture of ≥ 90% early schizont stages. The ring and schizont synchronized cultures were diluted to 0.5% and then incubated with either 50 nM DHA or 50 nM MM693183 for 24 h in duplicate. Subsequently, the drug was washed out and parasites were cultured for another 24 h. Parasitemia was determined using Giemsa-stained thin smears at 0 h, 24 h, and 48 h after drug exposure.

in vitro = conditions: human
[2] = Solubility in PBS, FaSSIF, FeSSIF; type: physicochemical; conditions: unknown samples, relative dilution factor 10000, duplicates
[3] = test system: P. falciparum Pf3D7^0087/N9; test: Single dose in vivo efficacy in humanized NSG mice; design: species or system Plasmodium falciparum
Method: The effect of pantothenamides on P. falciparum Pf3D7^0087/N9 [66] in vivo was assessed in female NSG mice (NODscidIL2Rγ^null) at the Swiss Tropical and Public Health Institute (Basel, Switzerland) as described previously (Supplementary Table 30)[15],[67]. Briefly, humanized mice were engrafted daily with human erythrocyte suspensions from days -11 to day 6. […] On day 4, groups of n = 2 mice were treated with a single dose pantothenamides or chloroquine (50 mg/kg) by oral gavage. […] Serial dilutions were prepared in the same solvent to concentrations 50 times higher than the corresponding CAL and QC concentrations. The concentrations were calculated under consideration of purity and salt factor. The spiking of the CAL and QC sample were performed at room temperature.

[4] = test system: human G6PD-A-deficient RBCs; test: Hemolytic toxicity in NSG mice engrafted with G6PD-deficient human RBCs; conditions: Primaquine group
Method: Hemolytic toxicity was determined in female NSG mice (Jackson Laboratories) using erythrocytes from a G6PD-A-deficient blood donor (0.4 u/g hemoglobin).

[5] = Human hepatocyte clearance (relay assay); conditions: human
Description: (§1) Briefly, cryopreserved human primary hepatocytes were thawed and cultured as described above.

[6] = test system: cryopreserved human primary hepatocytes; test: Human hepatocyte clearance (relay assay); conditions: 10 µM, single replicates
Description: as §1

HepG2 cells = test: HepG2 viability (resazurin); conditions: human, 10 µM
Method: Safety studies were performed by commercial services using their standard protocols. […] Genotoxicity was investigated using the Ames test (Bacterial Reverse Mutation Assay) (Covance Laboratories Ltd, North Yorkshire, England). In vitro mammalian cell micronucleus screening assay was studied in human peripheral blood lymphocytes (BioReliance Corporation, Rockville, USA). Cardiotoxicity was determined against the hERG channel in an automated patch clamp assay using the Qpatch or against the hNaV 1.5, hKV 1.5 and hCaV 1.2 using a manual patch-clamp technique (Metrion Biosciences, Cambridge, UK). Cytotoxicity in human and rat primary hepatocytes was assessed using the CellTiter-Blue assay performed by commercial services (KaLy-Cell). The viability of HepG2 cells was monitored through the addition of 1 mM resazurin. Following 6 h incubation, the relative amount of reduced resazurin was detected in a fluorimeter and compared to the assay controls (vehicle: 0.1% DMSO and positive control: 10 µM puromycin).

[7] = dog, plasma
[8] = human, plasma
[9] = rat, plasma
[10] = mouse, plasma

CCc1nc(N)nc(N)c1-c1ccc(Cl)cc1 [Pyrimethamine]
Average (log parasites +1) (P. falciparum 3D7; 24 h): 4.95 | Average (log parasites +1) (P. falciparum 3D7; 48 h): 1.57 | Average (log parasites +1) (P. falciparum 3D7; 72h): 0.53 | Average (log parasites +1) (P. falciparum 3D7; 96h): 0.00 | log (parasites +1) (P. falciparum 3D7; 96h): 0 | parasites (P. falciparum 3D7; 96h): 0 | Average (log parasites +1) (P. falciparum 3D7; 120h): 0.00 | log (parasites +1) (P. falciparum 3D7; 120h): 0 | parasites (P. falciparum 3D7; 120h): 0

C[C@H]1[C@@H](O)O[C@@H]2O[C@@]3(C)CC[C@H]4[C@H](C)CC[C@@H]1[C@@]24OO3 [DHA, dihydroartemisinin]
AcAS band intensity normalized to DMSO at 37 °C (AcAS (PF3D7_0627800); 37 °C): 142.951 | AcAS band intensity normalized to DMSO at 37 °C (AcAS (PF3D7_0627800); 42 °C): 180.287 | AcAS band intensity normalized to DMSO at 37 °C (AcAS (PF3D7_0627800); 47 °C): 80.1639 | AcAS band intensity normalized to DMSO at 37 °C (AcAS (PF3D7_0627800); 52 °C): 24.4159 | Parasitemia, rings culture ([1]; Time (h) 0): 0.4 | Parasitemia, rings culture ([1]; Time (h) 24): 0 | Parasitemia, rings culture ([1]; Time (h) 48): 0 | Parasitemia, schizonts culture ([1]; Time (h) 0): 0.2 | Parasitemia, schizonts culture ([1]; Time (h) 24): 0 | Parasitemia, schizonts culture ([1]; Time (h) 48): 0

NC(=O)N1c2ccccc2C=Cc2ccccc21 [Carbamazepine]
Papp A→B at 9000 Sec, 2 µM (in vitro; Caco-2, pH 7.4): 25 ×10⁻⁶ cm/s | Papp B→A at 9000 Sec, 2 µM (in vitro; Caco-2, pH 7.4): 28.9 ×10⁻⁶ cm/s | efflux ratio at 9000 Sec, 2 µM (in vitro; Caco-2, pH 7.4): 1.2 | Papp at 9000 Sec, 2 µM (in vitro; Caco-2, pH 7.4, Papp AVG): 25 ×10⁻⁶ cm/s | Papp at 9000 Sec, 2 µM (in vitro; Caco-2, pH 7.4, Papp n=1, 2): 24.3 ×10⁻⁶ cm/s

C[C@@H](CNC(=O)[C@H](O)C(C)(C)CO)NC(=O)c1cc(F)c(F)cc1F [MMV693183-06]
Calculated concentration (solubility sample) ([2]; FaSSIF): 9179.95 ppm and 9316.55 ppm | Calculated concentration (solubility sample) ([2]; FeSSIF): 9110.79 ppm and 8990.98 ppm | Calculated concentration (solubility sample) ([2]; PBS): 6813.58 ppm and 7461.45 ppm

CCN(CC)CCCC(C)Nc1ccnc2cc(Cl)ccc12 (stereo not drawn) [CQ, chloroquine, reference compound]
Parasitemia ([3]; day 5 post infection, 50 mg/kg p.o. on day 4, per mouse, 50 mg/kg): 0.12 and 0.07 | Parasitemia ([3]; day 6 post infection, per mouse): 0 and 0.01 | Parasitemia ([3]; day 7 post infection, per mouse): 0

COc1cc(NC(C)CCCN)c2ncccc2c1 (stereo not drawn) [Primaquine]
Human RBCs ([4]; day 0, individual mice): 74.3% and 71.3% and 74.2% and 65% | Reticulocytes ([4]; day 0, individual mice): 0.41% and 0.56% and 0.49% and 0.54% | Human RBCs ([4]; day 4, individual mice): 54.6% and 45.9% and 58.7% and 49.1% | Reticulocytes ([4]; day 4, individual mice): 5.2% and 2.88% and 7.64% and 5.35% | Human RBCs ([4]; day 7, individual mice): 13.5% and 5.35% and 9.52% and 4.33% | Reticulocytes ([4]; day 7, individual mice): 4.47% and 5.69% and 5.07% and 8.31% | Hematocrit ([4]; individual mice): 31.37% and 28.81% and 29.69% and 29.51% | Spleen weight ([4]; individual mice): 1.219 % of body weight and 1.099 % of body weight and 1.08 % of body weight and 1.161 % of body weight

CCOc1ccc2ccc(=O)oc2c1 [7-Ethoxycoumarin]
remaining at 0 h, 10 µM ([5]; % Remaining, 10 µM, hepatocyte donor HC02, 0 h, single replicates): 100% | remaining at 6 h, 10 µM ([5]; % Remaining, 10 µM, hepatocyte donor HC02, 6 h, single replicates): 2.2% | remaining at 0 h, 10 µM ([5]; % Remaining, 10 µM, hepatocyte donor HC06, 0 h, single replicates): 100% | remaining at 3 h, 10 µM ([5]; % Remaining, 10 µM, hepatocyte donor HC06, 3 h, single replicates): 80.9% | remaining at 6 h, 10 µM ([5]; % Remaining, 10 µM, hepatocyte donor HC06, 6 h, single replicates): 56.3% | remaining at 0 h, 10 µM ([5]; % Remaining, 10 µM, hepatocyte donor HC425, 0 h, single replicates): 100% | remaining at 6 h, 10 µM ([5]; % Remaining, 10 µM, hepatocyte donor HC425, 6 h, single replicates): 72.1% | remaining at 24 h, 10 µM ([5]; % Remaining, 10 µM, hepatocyte donor HC425, 24 h, single replicates): 33.1% | remaining at 0 h, 10 µM ([5]; % Remaining, 10 µM, hepatocyte donor HC1010, 0 h, single replicates): 100% | remaining at 3 h, 10 µM ([5]; % Remaining, 10 µM, hepatocyte donor HC1010, 3 h, single replicates): 46.7% | remaining at 6 h, 10 µM ([5]; % Remaining, 10 µM, hepatocyte donor HC1010, 6 h, single replicates): 29.5% | remaining at 24 h, 10 µM ([5]; % Remaining, 10 µM, hepatocyte donor HC1010, 24 h, single replicates): 2% | remaining at 48 h, 10 µM ([5]; cryopreserved human primary hepatocytes (relay assay), % Remaining, 10 µM, hepatocyte donor HC425, 48 h, single replicates): 25.4% | remaining at 72 h, 10 µM ([5]; cryopreserved human primary hepatocytes (relay assay), % Remaining, 10 µM, hepatocyte donor HC425, 72 h, single replicates): 8.2% | hepatocyte CLint ([5]; cryopreserved human primary hepatocytes (relay assay), CLint, donor HC02): 21.2 µL/min/1e6 cells | hepatocyte CLint ([5]; cryopreserved human primary hepatocytes (relay assay), CLint, donor HC06): 3.14 µL/min/1e6 cells | hepatocyte CLint at 10 µM ([5]; cryopreserved human primary hepatocytes (relay assay), CLint, donor HC425): 1.19 µL/min/1e6 cells | hepatocyte CLint ([5]; cryopreserved human primary hepatocytes (relay assay), CLint, donor HC1010): 6.28 µL/min/1e6 cells | % Remaining ([6]; hepatocyte donor HC06, 3 h): 76.9% | % Remaining ([6]; hepatocyte donor HC06, 6 h): 57.5% | % Remaining ([6]; hepatocyte donor HC425, 6 h): 78.5% | % Remaining ([6]; hepatocyte donor HC425, 24 h): 39.0% | % Remaining ([6]; hepatocyte donor HC425, 48 h): 22.9% | % Remaining ([6]; hepatocyte donor HC425, 72 h): 4.8% | % Remaining ([6]; hepatocyte donor HC1010, 3 h): 50.4% | % Remaining ([6]; hepatocyte donor HC1010, 6 h): 26.9%

COc1ccc(C[C@H](N)C(=O)N[C@H]2[C@@H](O)[C@H](n3cnc4c(N(C)C)ncnc43)O[C@@H]2CO)cc1 [puromycin]
HepG2 viability assay, raw signal, MIN average (HepG2 cells): 764

CCCCNC(=O)NS(=O)(=O)c1ccc(C)cc1 [Tolbutamide]
remaining at 0 h, 10 µM ([5]; hepatocytes, % Remaining): 100% | remaining at 3 h, 10 µM ([5]; hepatocytes, % Remaining): 98.8%

C[C@@H](CNC(=O)[C@H](O)C(C)(C)CO)NC(=O)c1cc(F)c(F)cc1F [MMV693183-03]
% Bound Avg [7]: 41.3% | % Bound n=1 [7]: 42.38% | % Bound n=2 [7]: 40.31% | % Free n=1 [7]: 57.62% | % Free n=2 [7]: 59.69% | % Bound Avg [8]: 51.9% | % Bound n=1 [8]: 52.54% | % Bound n=2 [8]: 51.24% | % Free n=1 [8]: 47.46% | % Free n=2 [8]: 48.76% | % Bound Avg [9]: 39.9% | % Bound n=1 [9]: 39.84% | % Bound n=2 [9]: 39.89% | % Free n=1 [9]: 60.16% | % Free n=2 [9]: 60.11% | % Bound Avg [10]: 33.4% | % Bound n=1 [10]: 32.91% | % Bound n=2 [10]: 33.90% | % Free n=1 [10]: 67.09% | % Free n=2 [10]: 66.10%
